Experimental data from patent publication US6602867B1, “Triazole compounds with dopamine-D3-receptor affinity” (Abbott Laboratories, priority 1999, dated 2003).
Where a name gives a salt, the structure may show the parent alone.

Legend:
[1] = biological target: T1, human dopamine D2A receptors (Homo sapiens, UniProt P14416); test: D2 binding test (125I-spiperone, HEK-293 cells); conditions: selectivity versus D2 receptor, Ki(D2)/Ki(D3)
T1 construct: expressed in transfected cells; host or cells: HEK-293 cells
T1 sequence (P14416 whole entry): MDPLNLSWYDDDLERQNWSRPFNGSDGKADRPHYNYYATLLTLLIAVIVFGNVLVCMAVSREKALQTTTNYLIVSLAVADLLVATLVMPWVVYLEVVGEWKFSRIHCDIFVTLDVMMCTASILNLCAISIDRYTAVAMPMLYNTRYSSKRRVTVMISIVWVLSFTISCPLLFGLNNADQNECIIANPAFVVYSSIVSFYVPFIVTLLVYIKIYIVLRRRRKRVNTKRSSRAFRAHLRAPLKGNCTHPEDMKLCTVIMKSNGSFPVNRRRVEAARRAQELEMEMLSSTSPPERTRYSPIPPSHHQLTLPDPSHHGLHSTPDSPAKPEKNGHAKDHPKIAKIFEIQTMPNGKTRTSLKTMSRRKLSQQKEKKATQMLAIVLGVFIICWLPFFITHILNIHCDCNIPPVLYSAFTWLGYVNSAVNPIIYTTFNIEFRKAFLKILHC
Experimental: All the media contained 100 units of penicillin […] and 100 μg/ml of streptomycin/ml. The cells were maintained at 37° C. in a moist atmosphere containing 5% CO2.
The cells were prepared for the binding studies by trypsinizing them (0.05% solution of trypsin) at room temperature for 3-5 minutes. After that, the cells were centrifuged at 250 g for 10 minutes and treated with lysis buffer (5 mM Tris-HCl, 10% glycerol, pH 7.4) at 4° C. for 30 minutes. After centrifuging at 250 g for 10 minutes, the residue was stored at −20° C. until used.
Low affinity state dopamine D2 receptor using ^125I-spiperone (81 TBq/mmol, Du Pont de Nemours, Dreieich)
The test mixtures (1 ml) consisted of 1×10^5 cells in incubation buffer (50 mM Tris, 120 mM NaCl, 5 mM KCl, 2 mM MgCl2 and 2 mM CaCl2, pH 7.4 with HCl) and […] ^125I-spiperone (total binding) or additionally 1 μM haloperidol (nonspecific binding) or test substance.
After the test mixtures had been incubated at 25° C. for 60 minutes, they were filtered through GM/B glass filters (Whatman, England) on a Skatron cell harvester (from Zinsser, Frankfurt), and the filters were washed with ice-cold 50 mM Tris-HCl buffer, pH 7.4. The radioactivity which had collected on the filters was quantified using a Packard 2200 CA liquid scintillation counter.
The results were evaluated as described in a).
The Ki values were determined by way of nonlinear regression analysis using the LIGAND program or by converting the IC50 values using the Cheng and Prusoff formula.

human D3-receptor = biological target: T2, human D3-receptor (Homo sapiens, UniProt P35462); test: D3 binding test (125iodosulpiride, membranes of CCL 1,3 mouse fibroblasts); conditions: negative logarithm of the affinity constant for the D3 receptor; read-out: pKi (D3) (converted)
T2 construct: host or cells: CCL 1,3 mouse fibroblasts
T2 sequence (P35462 whole entry): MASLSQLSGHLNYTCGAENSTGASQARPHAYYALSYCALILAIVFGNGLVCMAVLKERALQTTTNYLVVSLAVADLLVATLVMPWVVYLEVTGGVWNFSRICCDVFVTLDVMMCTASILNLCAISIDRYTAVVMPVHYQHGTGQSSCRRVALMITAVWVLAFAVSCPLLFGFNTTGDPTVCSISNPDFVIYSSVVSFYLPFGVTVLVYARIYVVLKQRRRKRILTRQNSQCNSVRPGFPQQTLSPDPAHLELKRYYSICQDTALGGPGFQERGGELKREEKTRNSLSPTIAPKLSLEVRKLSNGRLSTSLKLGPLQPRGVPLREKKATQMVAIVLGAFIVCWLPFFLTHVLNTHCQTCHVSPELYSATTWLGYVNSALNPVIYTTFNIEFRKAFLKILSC
Experimental: Cloned human D3-receptor-expressing CCL 1,3 mouse fibroblasts, obtainable from Res. Biochemicals Internat. One Strathmore Rd., Natick, Mass. 01760-2418 USA, were used for the binding studies.
The D3-expressing cells were multiplied in RPMI-1640 containing 10% fetal calf serum (GIBCO No. 041-32400 N); 100 U of penicillin/ml and 0.2% streptomycin (GIBO BRL, Gaithersburg, Md., USA). After 48 h, the cells were washed with PBS and incubated for 5 min with 0.05% trypsin-containing PBS. After that, the solution was neutralized with medium and the cells were collected by centrifuging at 300 g. In order to lyse the cells, the pellet was washed briefly with lysis buffer (5 mM Tris-HCl, pH 7.4, containing 10% glycerol) and after that incubated, at 4° C. for 30 min, at a concentration of 10^7 cells/ml of lysis buffer. The cells were centrifuged at 200 g for 10 min and the pellet was stored in liquid nitrogen.
For the D3-receptor binding test, the membranes were suspended in incubation buffer (50 mM Tris-HCl, pH 7.4, containing 120 mM NaCl, 5 mM KCl, 2 mM CaCl2, 2 mM MgCl2, 10 μM quinolinol, 0.1% ascorbic acid and 0.1% BSA), at a concentration of approx. 10^6 cells/250 μl of test mixture, and incubated at 30° C. with 0.1 nM ^125iodosulpiride in the presence and absence of the test substance. The nonspecific binding was determined using 10^−6 M spiperone.
After 60 min, the free radioligand and the bound radioligand were separated by filtering through GF/B glass fiber filters (Whatman, England) on a Skatron cell harvester (Skatron, Lier, Norway), and the filters were washed with ice-cold Tris-HCl buffer, pH 7.4. The radioactivity which had collected on the filters was quantified using a Packard 2200 CA liquid scintillation counter.
The Ki values were determined by means of nonlinear regression analysis using the LIGAND program.

melting point [°C] | Selectivity [1] | Ki (human D3-receptor) [nM] | SMILES
87 to 89 | – | – | Cl.Cl.Cn1c(SCCCN2CCc3ccccc3C2)nnc1-c1cccnc1
160 to 163 | – | – | COC(=O)c1ccc2c(c1)CN(CCCSc1nnc(-c3ccccc3)n1C)CC2.O=C(O)C(=O)O
175 | – | – | Cl.Cn1c(CCCCN2CCc3ccc(C#N)cc3C2)nnc1-c1ccccc1
184 to 185 | – | – | Cl.Cn1c(SCCCN2CCc3cc(C(F)(F)F)ccc3C2)nnc1-c1ccsc1
75 | – | – | CCN(CC)Cc1ccc2c(c1)CN(CCCSc1nnc(-c3ccccc3)n1C)CC2.Cl.Cl
205 to 207 | – | – | Cl.Cn1c(SCCCN2CCc3ccc(C(F)(F)F)cc3C2)nnc1-c1ccccc1
110 to 112 | – | – | CCN(CC)CCOc1cccc2c1CCN(CCCSc1nnc(-c3ccccc3)n1C)C2.Cl.Cl
146 to 150 | – | – | C=C(CSc1nnc(-c2ccccc2)n1C)CN1CCc2ccc([N+](=O)[O-])cc2C1.Cl
81 to 84 | – | – | Cn1c(SCCCN2CCc3ccc(S(=O)(=O)NCc4ccccc4)cc3C2)nnc1-c1cccnc1 (as salt: HCl) [Example 10, N-Benzyl-2-{3-[(4-methyl-5-pyridin-3-yl-4H-1,2,4-triazol-3-yl)-sulfanyl]propyl}-1,2,3,4-tetrahydroisoquinoline-7-sulfonamide]
90 | – | – | Cn1c(SCCCN2CCc3ccc(NS(C)(=O)=O)cc3C2)nnc1-c1ccccc1 (as salt: HCl) [Example 84, N-[2-(3-{[4-Methyl-5-phenyl-4H-1,2,4-triazol-3-yl]sulfanyl}-propyl)-1,2,3,4-tetrahydroisoquinolin-7-yl]methansulfonamide]
179 to 181 | – | – | COc1ccc2c(c1)CCN(CCCSc1nnc(-c3ccc[nH]3)n1C)C2 [Example 2, 6-Methoxy-2-{3-[(4-methyl-5-pyrrol-2-yl-4H-1,2,4-triazol-3-yl)-sulfanyl]propyl}-1,2,3,4-tetrahydroisoquinoline]
– | 78 | 9.55 | COc1ccc2c(c1)CCN(CCCSc1nnc(-c3ccccc3)n1C)C2 [Example 3, 2-{3-[(4-Methyl-5-phenyl-4H-1,2,4-triazol-3-yl)sulfanyl]propyl}-6-methoxy-1,2,3,4-tetrahydroisoquinoline]
105 to 108 | 67 | 11 | Cn1c(SCCCN2CCc3ccc(S(=O)(=O)N4CCCCC4)cc3C2)nnc1-c1ccccc1 [Example 4, 2-{3-[(4-Methyl-5-phenyl-4H-1,2,4-triazol-3-yl)sulfanyl]propyl}-7-(piperidin-1-ylsulfonyl)-1,2,3,4-tetrahydroisoquinoline]
116 to 118 | 81 | 4.27 | Cn1c(SCCCN2CCc3ccc(C#N)cc3C2)nnc1-c1ccccc1 [Example 7, 2-{3-[(4-Methyl-5-phenyl-4H-1,2,4-triazol-3-yl)sulfanyl]propyl}-1,2,3,4-tetrahydroisoquinoline-7-carbonitrile]
67 to 70 | – | – | Cc1ncsc1-c1nnc(SCCCN2CCc3ccc(S(=O)(=O)NCc4ccccc4)cc3C2)n1C [Example 9, N-Benzyl-2-(3-{[4-methyl-5-(4-methyl-1,3-thiazol-5-yl)-4H-1,2,4-triazol-3-yl]sulfanyl}propyl)-1,2,3,4-tetrahydroisoquinoline-7-sulfonamide]
73 to 75 | – | – | COc1cccc2c1CCN(CCCSc1nnc(-c3ccccc3)n1C)C2 [Example 11, 5-Methoxy-2-{3-[(4-methyl-5-phenyl-4H-1,2,4-triazol-3-yl)-sulfanyl]propyl}-1,2,3,4-tetrahydroisoquinoline]
58 to 61 | – | – | Cn1c(SCCCN2CCc3ccc(S(=O)(=O)Nc4ccccc4)cc3C2)nnc1-c1cccnc1 [Example 25, 2-{3-[(4-Methyl-5-pyridin-3-yl-4H-1,2,4-triazol-3-yl)sulfanyl]-propyl}-N-phenyl-1,2,3,4-tetrahydroisoquinoline-7-sulfonamide]
77 to 81 | – | – | Cc1ncsc1-c1nnc(SCCCN2CCc3ccc(S(=O)(=O)Nc4ccccc4)cc3C2)n1C [Example 26, 2-(3-{[4-Methyl-5-(4-methyl-1,3-thiazol-5-yl)-4H-1,2,4-triazol-3-yl]sulfanyl}propyl)-N-phenyl-1,2,3,4-tetrahydroisoquinoline-7-sulfonamide]
138 to 139 | – | – | Cn1c(SCCCN2CCc3cc(Cl)c(Cl)cc3C2)nnc1-c1ccccc1 [Example 28, 6,7-Dichloro-2-{3-[(4-methyl-5-phenyl-4H-1,2,4-triazol-3-yl)-sulfanyl]propyl}-1,2,3,4-tetrahydroisoquinoline]
96 to 100 | – | – | Cn1cccc1-c1nnc(SCCCN2CCc3ccc(S(=O)(=O)N4CCCCC4)cc3C2)n1C [Example 35, 2-(3-{[4-Methyl-5-(1-methyl-1H-pyrrol-2-yl)-4H-1,2,4-triazol-3-yl]sulfanyl}propyl)-7-(piperidin-1-ylsulfonyl)-1,2,3,4-tetrahydroisoquinoline]
99 to 100 | – | – | Cn1c(SCCCN2CCc3cc(Cl)ccc3C2)nnc1-c1ccsc1 [Example 39, 6-Chloro-2-{3-[(4-methyl-5-thien-3-yl-4H-1,2,4-triazol-3-yl)-sulfanyl]propyl}-1,2,3,4-tetrahydroisoquinoline]
75 to 76 | – | – | Cn1c(SCCCN2CCc3ccc(S(=O)(=O)N4CCCC(C)(C)C4)cc3C2)nnc1-c1ccccc1 [Example 49, 7-[(3,3-Dimethylpiperidin-1-yl)sulfonyl]-2-{3-[(4-methyl-5-phenyl-4H-1,2,4-triazol-3-yl)sulfanyl]propyl}-1,2,3,4-tetrahydroisoquinoline]
